Reference: the NIST ThermoML archive (doi:10.1016/j.jct.2018.10.023)

Assay: wn = mass fraction of the nth substance listed
Conditions: 101 kPa, Liquid, Digital holographic interferometer

[Cl-].[Li+] [lithium chloride] + O
298.15 K
Conditions | binary diffusion coefficient [m2/s]
w1 = 0.011 | 1.31e-09
w1 = 0.027 | 1.23e-09

CC(C)CCO [3-methylbutan-1-ol] + CCCCCCC
binary diffusion coefficient [m2/s]
Conditions | w1 = 0.05 | w1 = 0.15 | w1 = 0.25 | w1 = 0.35 | w1 = 0.45 | w1 = 0.55 | w1 = 0.65 | w1 = 0.75 | w1 = 0.85 | w1 = 0.95
288.15 K | 1.74e-09 | 1.25e-09 | 9.07e-10 | 6.95e-10 | 6.1e-10 | 5.7e-10 | 6.18e-10 | 6.65e-10 | 7.11e-10 | 7.46e-10
298.15 K | 1.99e-09 | 1.52e-09 | 1.17e-09 | 9.75e-10 | 8.69e-10 | 8.42e-10 | 8.91e-10 | 9.46e-10 | 9.85e-10 | 1.01e-09
308.15 K | 2.28e-09 | 1.83e-09 | 1.44e-09 | 1.27e-09 | 1.15e-09 | 1.13e-09 | 1.17e-09 | 1.22e-09 | 1.29e-09 | 1.32e-09
318.15 K | 2.54e-09 | 2.09e-09 | 1.75e-09 | 1.55e-09 | 1.43e-09 | 1.4e-09 | 1.46e-09 | 1.52e-09 | 1.56e-09 | 1.58e-09

CCC(C)CO (centres undefined) [2-methyl-1-butanol] + CCCCCCC
binary diffusion coefficient [m2/s]
Conditions | w1 = 0.05 | w1 = 0.15 | w1 = 0.25 | w1 = 0.35 | w1 = 0.45 | w1 = 0.55 | w1 = 0.65 | w1 = 0.75 | w1 = 0.85 | w1 = 0.95
288.15 K | 1.02e-09 | 8.91e-10 | 7.99e-10 | 6.91e-10 | 6.03e-10 | 5.26e-10 | 4.81e-10 | 4.52e-10 | 4.61e-10 | 4.83e-10
298.15 K | 1.24e-09 | 1.11e-09 | 1.01e-09 | 9.24e-10 | 8.43e-10 | 7.55e-10 | 7.02e-10 | 6.8e-10 | 6.9e-10 | 7.04e-10
308.15 K | 1.49e-09 | 1.34e-09 | 1.24e-09 | 1.15e-09 | 1.08e-09 | 9.81e-10 | 9.31e-10 | 9.25e-10 | 9.36e-10 | 9.41e-10
318.15 K | 1.73e-09 | 1.58e-09 | 1.5e-09 | 1.4e-09 | 1.33e-09 | 1.24e-09 | 1.17e-09 | 1.16e-09 | 1.18e-09 | 1.19e-09

[Cl-].[Na+] [sodium chloride] + O
Conditions | binary diffusion coefficient [m2/s]
298.15 K, w1 = 0.018 | 1.47e-09

[Cl-].[K+] [potassium chloride] + O
Conditions | binary diffusion coefficient [m2/s]
298.15 K, w1 = 0.025 | 1.85e-09
